Data as given in US8741907B2, “Alkyl-substituted pyrazolopyrimidines” (Boehringer Ingelheim International GmbH, priority 2002, dated 2014).

Assays:
[1] = molecular target: T1, PDE9A (Homo sapiens (Human), UniProt O76083); settings: concentrations of up to 100 μM; cited from earlier work
[2] = molecular target: Murine PDE9A (Mus musculus (Mouse), UniProt O70628); settings: concentrations below 200 μM; cited from earlier work
[3] = molecular target: PDE1C (Homo sapiens (Human), UniProt Q14123); test: PDE inhibition, recombinant PDE1C; assay type: biochemical
[4] = molecular target: PDE2A (Homo sapiens (Human), UniProt O00408); test: PDE inhibition, recombinant PDE2A; assay type: biochemical
Chain of PDE2A (O00408 whole entry): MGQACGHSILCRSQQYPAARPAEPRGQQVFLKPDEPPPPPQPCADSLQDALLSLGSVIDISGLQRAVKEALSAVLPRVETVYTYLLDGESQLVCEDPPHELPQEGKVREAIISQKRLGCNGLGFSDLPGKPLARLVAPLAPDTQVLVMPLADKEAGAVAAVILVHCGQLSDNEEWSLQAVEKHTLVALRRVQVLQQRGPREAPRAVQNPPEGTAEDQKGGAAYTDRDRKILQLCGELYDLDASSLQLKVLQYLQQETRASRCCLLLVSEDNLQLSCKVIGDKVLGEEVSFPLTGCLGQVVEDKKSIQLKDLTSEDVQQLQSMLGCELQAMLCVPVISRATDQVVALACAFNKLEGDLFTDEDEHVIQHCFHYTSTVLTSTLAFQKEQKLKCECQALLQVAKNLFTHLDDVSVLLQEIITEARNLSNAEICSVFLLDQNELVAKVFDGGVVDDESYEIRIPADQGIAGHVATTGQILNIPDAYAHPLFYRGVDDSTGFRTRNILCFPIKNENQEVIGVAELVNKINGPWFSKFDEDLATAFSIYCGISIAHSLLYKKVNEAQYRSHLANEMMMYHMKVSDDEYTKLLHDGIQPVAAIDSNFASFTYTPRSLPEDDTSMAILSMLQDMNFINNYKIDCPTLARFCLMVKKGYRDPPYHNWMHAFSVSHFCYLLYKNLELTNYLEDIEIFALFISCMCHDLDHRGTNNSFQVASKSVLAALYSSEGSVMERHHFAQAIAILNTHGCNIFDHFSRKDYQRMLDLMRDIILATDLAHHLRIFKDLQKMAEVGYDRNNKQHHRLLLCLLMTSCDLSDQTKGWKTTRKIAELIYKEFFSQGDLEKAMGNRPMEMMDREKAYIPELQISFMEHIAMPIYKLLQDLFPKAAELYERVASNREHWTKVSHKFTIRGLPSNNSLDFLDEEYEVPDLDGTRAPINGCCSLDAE
Source text: (§1) Recombinant PDE1C (GenBank/EMBL Accession Number: NM_005020, Loughney et al. J. Biol. Chem. 1996 271, 796-806), PDE2A (GenBank/EMBL Accession Number: NM_002599, Rosman et al. Gene 1997 191, 89-95), PDE3B (GenBank/EMBL Accession Number: NM_000922, Miki et al. Genomics 1996, 36, 476-485), PDE4B (GenBank/EMBL Accession Number: NM_002600, Obernolte et al. Gene. 1993, 129, 239-247), PDE5A (GenBank/EMBL Accession Number: NM_001083, Loughney et al. Gene 1998, 216, 139-147), PDE7B (GenBank/EMBL Accession Number: NM_018945, Hetman et al. Proc. Natl. Acad. Sci. U.S.A. 2000, 97, 472-476), PDE8A (GenBank/EMBL Accession Number. AF—056490, Fisher et al. Biochem. Biophys. Res. Commun. […]
(§2) The test substances are dissolved in 100% DMSO and serially diluted to determine their in vitro effect on PDE 9A. […] The plates are then measured for 30 s per well in a Microbeta scintillation counter (Wallac Inc., Atlanta, Ga.). IC50 values are determined from the graphical plot of the substance concentration versus the percentage inhibition.
(§3) The in vitro effect of test substances on recombinant PDE3B, PDE4B, PDE7B, PDE8A, PDE10A and PDE11A is determined in accordance with the assay protocol described above for PDE9A with the following adaptations: [5′,8-^3H] adenosine 3′,5′-cyclic phosphate (1 μCi/μL; Amersham Pharmacia Biotech., Piscataway, N.J.) is used as substrate. […]

[5] = molecular target: PDE3B (Homo sapiens (Human), UniProt Q13370); test: PDE inhibition, recombinant PDE3B; assay type: biochemical
Chain of PDE3B (Q13370 whole entry): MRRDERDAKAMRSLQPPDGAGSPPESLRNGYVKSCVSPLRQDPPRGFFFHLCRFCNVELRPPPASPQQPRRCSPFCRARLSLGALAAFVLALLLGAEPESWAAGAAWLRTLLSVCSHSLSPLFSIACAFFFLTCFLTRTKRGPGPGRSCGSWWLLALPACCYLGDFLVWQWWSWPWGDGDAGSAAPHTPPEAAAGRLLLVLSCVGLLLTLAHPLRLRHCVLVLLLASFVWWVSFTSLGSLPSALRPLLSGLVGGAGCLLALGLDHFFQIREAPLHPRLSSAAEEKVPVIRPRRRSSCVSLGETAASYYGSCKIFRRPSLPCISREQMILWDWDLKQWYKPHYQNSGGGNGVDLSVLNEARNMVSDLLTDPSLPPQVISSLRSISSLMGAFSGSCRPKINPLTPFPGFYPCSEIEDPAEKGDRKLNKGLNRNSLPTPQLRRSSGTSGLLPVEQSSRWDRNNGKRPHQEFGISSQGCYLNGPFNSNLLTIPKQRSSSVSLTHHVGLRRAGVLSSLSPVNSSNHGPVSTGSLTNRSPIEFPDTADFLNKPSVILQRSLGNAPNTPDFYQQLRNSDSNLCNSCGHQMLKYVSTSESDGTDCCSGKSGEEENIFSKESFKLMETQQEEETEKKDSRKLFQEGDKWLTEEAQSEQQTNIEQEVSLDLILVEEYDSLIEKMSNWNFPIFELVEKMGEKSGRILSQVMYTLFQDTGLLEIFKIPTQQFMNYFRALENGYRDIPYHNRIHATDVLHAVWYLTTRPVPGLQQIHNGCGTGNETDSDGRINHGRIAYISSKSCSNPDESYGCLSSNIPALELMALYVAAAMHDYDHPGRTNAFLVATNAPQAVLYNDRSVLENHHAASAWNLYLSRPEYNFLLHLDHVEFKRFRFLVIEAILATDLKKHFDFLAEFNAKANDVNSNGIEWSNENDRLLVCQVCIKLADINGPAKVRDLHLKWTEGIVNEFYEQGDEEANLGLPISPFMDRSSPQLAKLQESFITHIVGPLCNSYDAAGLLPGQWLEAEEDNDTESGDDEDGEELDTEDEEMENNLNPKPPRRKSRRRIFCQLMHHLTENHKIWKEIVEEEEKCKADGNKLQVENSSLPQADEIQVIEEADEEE
Source text: as §1, §2, §3

[6] = molecular target: PDE4B (Homo sapiens, UniProt Q07343); test: PDE inhibition, recombinant PDE4B; assay type: biochemical
Chain of PDE4B (Q07343 whole entry, looked up): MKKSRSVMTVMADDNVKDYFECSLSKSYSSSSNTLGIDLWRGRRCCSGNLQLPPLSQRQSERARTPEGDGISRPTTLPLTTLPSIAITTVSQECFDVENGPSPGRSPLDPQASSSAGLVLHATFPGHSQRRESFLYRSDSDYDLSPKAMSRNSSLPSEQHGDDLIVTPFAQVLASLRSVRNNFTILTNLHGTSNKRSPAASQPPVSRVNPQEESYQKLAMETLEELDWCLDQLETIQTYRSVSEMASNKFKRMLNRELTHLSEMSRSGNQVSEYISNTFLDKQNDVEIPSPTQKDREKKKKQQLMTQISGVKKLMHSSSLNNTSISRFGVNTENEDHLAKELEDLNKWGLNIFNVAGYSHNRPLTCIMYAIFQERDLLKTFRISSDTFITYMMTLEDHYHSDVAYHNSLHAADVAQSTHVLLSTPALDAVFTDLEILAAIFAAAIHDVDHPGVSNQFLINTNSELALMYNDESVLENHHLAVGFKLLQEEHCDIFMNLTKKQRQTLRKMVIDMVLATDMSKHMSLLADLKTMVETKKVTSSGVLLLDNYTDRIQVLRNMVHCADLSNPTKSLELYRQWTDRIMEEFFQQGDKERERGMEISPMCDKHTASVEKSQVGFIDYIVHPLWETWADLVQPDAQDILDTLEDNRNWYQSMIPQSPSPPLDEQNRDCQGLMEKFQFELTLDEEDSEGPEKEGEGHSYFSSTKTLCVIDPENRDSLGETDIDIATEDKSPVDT
Protocol: The test substances are dissolved in 100% DMSO and serially diluted to determine their in vitro effect on PDE 9A. […] 2 μL portions of the diluted substance solutions are introduced into the wells of microtiter plates (Isoplate; Wallac Inc., Atlanta, Ga.). Then 50 μL of a dilution of the PDE9A preparation described above are added. […] The substrate, [8-^3H] guanosine 3′,5′-cyclic phosphate (1 μCi/μL; Amersham Pharmacia Biotech., Piscataway, N.J.) is diluted 1:2000 with assay buffer (50 mM Tris/HCl pH 7.5, 8.3 mM MgCl2, 1.7 mM EDTA) to a concentration of 0.0005 μCi/μL. The enzyme reaction is finally started by adding 50 μL (0.025 μCi) of the diluted substrate. […] Immediately thereafter, 25 μL of a suspension containing 18 mg/mL Yttrium Scintillation Proximity Beads (Amersham Pharmacia Biotech., Piscataway, N.J.) are added. […] The plates are then measured for 30 s per well in a Microbeta scintillation counter (Wallac Inc., Atlanta, Ga.). IC50 values are determined from the graphical plot of the substance concentration versus the percentage inhibition.
The in vitro effect of test substances on recombinant PDE3B, PDE4B, PDE7B, PDE8A, PDE10A and PDE11A is determined in accordance with the assay protocol described above for PDE9A with the following adaptations: [5′,8-^3H] adenosine 3′,5′-cyclic phosphate (1 μCi/μL; Amersham Pharmacia Biotech., Piscataway, N.J.) is used as substrate.

[7] = molecular target: PDE5A (Homo sapiens (Human), UniProt O76074); test: PDE inhibition, recombinant PDE5A; assay type: biochemical
Source text: as §1, §2, §3

[8] = molecular target: PDE7B (Homo sapiens (Human), UniProt Q9NP56); test: PDE inhibition, recombinant PDE7B; assay type: biochemical
Source text: as §1, §2, §3

[9] = molecular target: PDE8A (Homo sapiens (Human), UniProt O60658); test: PDE inhibition, recombinant PDE8A; assay type: biochemical
Chain of PDE8A (O60658 117-829): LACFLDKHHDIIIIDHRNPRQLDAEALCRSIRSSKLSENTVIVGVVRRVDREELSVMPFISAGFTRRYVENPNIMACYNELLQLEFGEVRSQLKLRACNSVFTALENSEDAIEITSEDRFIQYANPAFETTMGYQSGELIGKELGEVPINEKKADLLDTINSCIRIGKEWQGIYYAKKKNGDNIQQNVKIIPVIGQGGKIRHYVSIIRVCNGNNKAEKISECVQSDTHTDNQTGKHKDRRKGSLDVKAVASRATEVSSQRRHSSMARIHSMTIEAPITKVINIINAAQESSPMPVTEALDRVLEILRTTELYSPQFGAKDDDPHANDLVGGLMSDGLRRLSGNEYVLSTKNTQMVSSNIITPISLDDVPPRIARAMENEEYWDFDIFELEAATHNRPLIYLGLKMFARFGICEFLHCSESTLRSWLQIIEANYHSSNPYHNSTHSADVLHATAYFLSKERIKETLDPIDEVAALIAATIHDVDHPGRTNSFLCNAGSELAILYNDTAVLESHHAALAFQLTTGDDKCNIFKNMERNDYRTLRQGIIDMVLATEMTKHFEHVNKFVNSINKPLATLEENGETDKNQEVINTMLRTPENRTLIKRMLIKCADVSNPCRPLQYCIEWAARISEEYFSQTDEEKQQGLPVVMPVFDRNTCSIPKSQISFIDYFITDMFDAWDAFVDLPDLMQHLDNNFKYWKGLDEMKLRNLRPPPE
Source text: as §1, §2, §3

[10] = molecular target: T1, PDE9A; test: PDE inhibition, recombinant PDE9A; assay type: biochemical
Protocol: The test substances are dissolved in 100% DMSO and serially diluted to determine their in vitro effect on PDE 9A. […] 2 μL portions of the diluted substance solutions are introduced into the wells of microtiter plates (Isoplate; Wallac Inc., Atlanta, Ga.). Then 50 μL of a dilution of the PDE9A preparation described above are added. […] The substrate, [8-^3H] guanosine 3′,5′-cyclic phosphate (1 μCi/μL; Amersham Pharmacia Biotech., Piscataway, N.J.) is diluted 1:2000 with assay buffer (50 mM Tris/HCl pH 7.5, 8.3 mM MgCl2, 1.7 mM EDTA) to a concentration of 0.0005 μCi/μL. The enzyme reaction is finally started by adding 50 μL (0.025 μCi) of the diluted substrate. […] Immediately thereafter, 25 μL of a suspension containing 18 mg/mL Yttrium Scintillation Proximity Beads (Amersham Pharmacia Biotech., Piscataway, N.J.) are added. The microliter plates are sealed with a film and left to stand at room temperature for 60 min. The plates are then measured for 30 s per well in a Microbeta scintillation counter (Wallac Inc., Atlanta, Ga.). IC50 values are determined from the graphical plot of the substance concentration versus the percentage inhibition.

[11] = molecular target: PDE10A (Homo sapiens (Human), UniProt Q9Y233); test: PDE inhibition, recombinant PDE10A; assay type: biochemical
Chain of PDE10A (Q9Y233 other isoform, or with tags, fused parts or gaps): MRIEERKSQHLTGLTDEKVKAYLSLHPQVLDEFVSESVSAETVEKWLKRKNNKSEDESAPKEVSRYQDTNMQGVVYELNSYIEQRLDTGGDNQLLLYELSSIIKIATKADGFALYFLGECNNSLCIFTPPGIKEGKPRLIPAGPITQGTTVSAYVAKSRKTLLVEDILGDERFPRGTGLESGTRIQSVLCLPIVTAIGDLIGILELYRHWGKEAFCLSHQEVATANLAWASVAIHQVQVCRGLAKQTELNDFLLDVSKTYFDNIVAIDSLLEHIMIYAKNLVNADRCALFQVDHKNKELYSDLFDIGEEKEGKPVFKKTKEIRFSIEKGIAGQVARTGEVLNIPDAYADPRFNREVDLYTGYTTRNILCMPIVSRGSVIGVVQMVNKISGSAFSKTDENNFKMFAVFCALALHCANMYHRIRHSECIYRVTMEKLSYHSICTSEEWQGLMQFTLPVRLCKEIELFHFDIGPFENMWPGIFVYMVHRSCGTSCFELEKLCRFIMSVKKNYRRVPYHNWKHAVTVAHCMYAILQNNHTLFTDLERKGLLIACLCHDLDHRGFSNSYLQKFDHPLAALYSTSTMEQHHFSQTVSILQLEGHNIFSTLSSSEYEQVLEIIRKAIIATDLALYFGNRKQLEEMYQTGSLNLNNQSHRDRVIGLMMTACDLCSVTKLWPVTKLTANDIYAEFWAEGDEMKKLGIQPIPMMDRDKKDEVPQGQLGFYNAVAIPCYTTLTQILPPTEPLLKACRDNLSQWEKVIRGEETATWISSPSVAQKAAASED
Source text: as §1, §2, §3

T1 sequence (O76083 whole entry): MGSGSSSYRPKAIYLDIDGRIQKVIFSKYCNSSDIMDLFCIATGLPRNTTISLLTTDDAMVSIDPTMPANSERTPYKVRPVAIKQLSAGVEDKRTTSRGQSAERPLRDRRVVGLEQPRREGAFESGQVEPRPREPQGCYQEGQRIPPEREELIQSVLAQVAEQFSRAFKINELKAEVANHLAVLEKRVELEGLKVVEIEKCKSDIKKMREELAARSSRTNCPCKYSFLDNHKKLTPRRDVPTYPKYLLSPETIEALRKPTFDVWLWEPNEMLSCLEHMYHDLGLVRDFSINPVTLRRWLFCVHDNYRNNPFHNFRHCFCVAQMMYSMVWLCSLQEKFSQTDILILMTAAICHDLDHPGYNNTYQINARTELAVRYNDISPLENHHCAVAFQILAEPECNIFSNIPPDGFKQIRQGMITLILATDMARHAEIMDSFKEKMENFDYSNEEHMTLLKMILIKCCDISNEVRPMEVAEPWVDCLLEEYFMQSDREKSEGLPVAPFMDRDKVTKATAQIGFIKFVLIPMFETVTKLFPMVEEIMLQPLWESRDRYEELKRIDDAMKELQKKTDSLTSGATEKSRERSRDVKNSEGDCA

SMILES	melting point	also measured
CCC(C)Cc1nc2c(cnn2C2CCCC2)c(=O)[nH]1 (stereo not shown)	86 °C	–
CC(C)Cn1c(=O)n(C)c(=O)c2[nH]cnc21 [IBMX]	–	inhibition on the isolated enzyme [1]: no inhibition; inhibition [2]: not inhibited
OCCN(CCO)c1nc(N2CCCCC2)c2nc(N(CCO)CCO)nc(N3CCCCC3)c2n1 [dipyridamole]	–	inhibition on the isolated enzyme [1]: no inhibition
O=c1[nH]c(CC2CCCO2)nc2c1cnn2C1CCCC1 (stereo not shown)	179 °C	–
CCC(CC)n1ncc2c(=O)[nH]c(CC3CCCCC3)nc21 [Example 3, 6-(Cyclohexylmethyl)-1-(1-ethylpropyl)-1,5-dihydro-4H-pyrazolo[3,4-d]pyrimidin-4-one]	122 °C	IC50 [3]: 720 nM; IC50 [4]: > 4 µM; IC50 [5]: > 4 µM; IC50 [6]: > 4 µM; IC50 [7]: > 4 µM; IC50 [8]: > 4 µM; IC50 [9]: > 4 µM; IC50 [10]: 110 nM; IC50 [11]: > 4 µM
CCC(CC)n1ncc2c(=O)[nH]c(CC3C=CCC3)nc21 (stereo not shown)	128 °C	–
O=c1[nH]c(CC2C=CCC2)nc2c1cnn2C1CCCC1 (stereo not shown)	166 °C	–
O=c1[nH]c(CC2CCCCC2)nc2c1cnn2C1CCCC1	147 °C	–
O=c1[nH]c(CCCO)nc2c1cnn2C1CCCC1 [Example 2, 1-Cyclopentyl-6-(3-hydroxypropyl)-1,5-dihydro-4H-pyrazolo[3,4-d]pyrimidin-4-one]	138 °C	–
CC(=O)Nc1ccc(-c2c[nH]c(=O)cn2)cc1 [SKF94120]	–	inhibition on the isolated enzyme [1]: no inhibition
CCC(C)Cc1nc2c(cnn2C(CC)CC)c(=O)[nH]1 (stereo not shown) [Example 7, 1-(1-Ethylpropyl)-6-(2-methylbutyl)-1,5-dihydro-4H-pyrazolo[3,4-d]pyrimidin-4-one]	121 °C	–
COc1ccc(C2CNC(=O)C2)cc1OC1CCCC1 (stereo not shown) [rolipram]	–	inhibition on the isolated enzyme [1]: no inhibition
CCOC(=O)C1=C[C@]2(CC)CCCN3CCc4c(n1c1ccccc41)[C@@H]32 [vinpocetine]	–	inhibition on the isolated enzyme [1]: no inhibition
CC(C)CCc1nc2c(cnn2C2CCCC2)c(=O)[nH]1 [Example 5, 1-Cyclopentyl-6-(3-methylbutyl)-1,5-dihydro-4H-pyrazolo[3,4-d]pyrimidin-4-one]	133 °C	–

Second part, led by results:

melting point	SMILES	also measured
185 °C	CCOC(=O)CCc1nc2c(cnn2C2CCCC2)c(=O)[nH]1 [Example 18, Ethyl 4-[1-cyclopentyl-4-oxo-4,5-dihydro-1H-pyrazolo[3,4-d]pyrimidin-6-yl]-propionate]	–
127 °C	CCCc1nc2c(cnn2C(CC)CC)c(=O)[nH]1 [Example 10, 1-(1-Ethylpropyl)-6-propyl-1,5-dihydro-4H-pyrazolo[3,4-d]pyrimidin-4-one]	–
166 °C	CC(Cc1nc2c(cnn2C2CCCC2)c(=O)[nH]1)C(F)(F)F (stereo not shown) [Example 23, 1-(1-Cyclopentyl)-6-(3,3,3-trifluoro-2-methylpropyl)-1,5-dihydro-4H-pyrazolo[3,4-d]pyrimidin-4-one]	–
156 °C	CCC(CC)n1ncc2c(=O)[nH]c(CC3CCCC3)nc21 [Example 21, 6-(Cyclopentylmethyl)-1-(1-ethylpropyl)-1,5-dihydro-4H-pyrazolo[3,4-d]pyrimidin-4-one]	–
127 °C	CCC(CC)n1ncc2c(=O)[nH]c(CCC(C)C)nc21 [Example 8, 1-(1-Ethylpropyl)-6-isopentyl-1,5-dihydro-4H-pyrazolo[3,4-d]pyrimidin-4-one]	–
118 °C	CCOC(=O)CCc1nc2c(cnn2C(CC)CC)c(=O)[nH]1 [Example 14, Ethyl 4-[1-(1-ethylpropyl)-4-oxo-4,5-dihydro-1H-pyrazolo[3,4-d]pyrimidin-6-yl]-propionate]	–
161 °C	CCC(CC)n1ncc2c(=O)[nH]c(CC(C)C)nc21 [Example 9, 1-(1-Ethylpropyl)-6-isobutyl-1,5-dihydro-4H-pyrazolo[3,4-d]pyrimidin-4-one]	–
126 °C	CC1CCC(Cc2nc3c(cnn3C3CCCC3)c(=O)[nH]2)CC1 (stereo not shown) [Example 15, 1-Cyclopentyl-6-[(4-methylcyclohexyl)methyl]-1,5-dihydro-4H-pyrazolo[3,4-d]-pyrimidin-4-one]	–
156 °C	CCC(CC)n1ncc2c(=O)[nH]c(CC(C)C(F)(F)F)nc21 (stereo not shown) [Example 22, 1-(1-Ethylpropyl)-6-(3,3,3-trifluoro-2-methylpropyl)-1,5-dihydro-4H-pyrazolo[3,4-d]pyrimidin-4-one]	–
136 °C	CCC(CC)n1ncc2c(=O)[nH]c(CC3CCCO3)nc21 (stereo not shown) [Example 11, 1-(1-Ethylpropyl)-6-(tetrahydro-2-furanylmethyl)-1,5-dihydro-4H-pyrazolo[3,4-d]-pyrimidin-4-one]	–
